# Experimental data from patent publication US20130029983A1, “AMINOTHIENOPYRIDAZINE INHIBITORS OF TAU ASSEMBLY” (priority 2009, published 2013).
# Read-outs that look alike come from different tables or passages of the source.
# Key:
# [1] = Brain and plasma drug levels 1 h after i.p. administration (LC-MS/MS); assay type: in vivo; details: mice; for B/P, ratio between brain/plasma drug level: 1 h after i.p. 5 mg/Kg
# Protocol: (§1) Test compounds underwent preliminary evaluations of brain penetration, in which 5 mg/Kg of each compound was administered intraperitoneally (i.p.) to a group of three normal mice; drug levels in brain and plasma were determined at a single time-point (1 h) by LC-MS/MS using pre-validated calibration curves. […] However, both esters appeared to have relatively short half-lives in plasma, as indicated by the limited amount of parent drug detected after 1 h from administration of the compounds. […] CNDR-51362 was selected for full PK analysis in which brain and plasma drug levels were determined at six time points (i.e., 30 min, 1 h, 2 h, 4 h, 8 h, and 16 h). The results from this experiment, illustrated in FIG. 6A, confirmed that the total B/P exposure ratio over 16 h is 1.6. […] Finally, in order to investigate the potential for ATPZ congeners to be orally administered, we evaluated brain and plasma level of CNDR-51362 and CNDR-51349 after oral administration of 5 mg/Kg.
# (§2) Brain tissue was homogenized in 10 mM ammonium acetate, pH 5.7 (1:2; w/v) using a handheld sonic homogenizer. Plasma was obtained from blood that was collected into a 1.5 mL tube containing 0.5M EDTA solution and subjected to centrifugation for 10 min. at 4500 g at 4° C. Aliquots (50 μL) of brain homogenate or plasma were mixed with 0.2 mL of acetonitrile, centrifuged at 15,000 g, and the resulting supernatants were used for subsequent LC-MS/MS analysis. The LC-MS/MS system was comprised of an Aquity HPLC and a TQ MS that was controlled using MassLynx software (Waters Corporation, Milford, Mass., USA). Compounds were detected using multiple reaction monitoring (MRM) of their specific collision-induced ion transitions. Samples (5 μL) were separated on an Aquity BEH C18 column (1.7 μm, 2.1×50 mm) at 35° C. Operation was in positive electrospray ionization mode, with mobile phase A of 0.1% (v/v) formic acid, and B of either acetonitrile or methanol with 0.1% (v/v) formic acid at a flow rate of 0.6 mL/min using a gradient from 5% to 95% B over two min., followed by wash and re-equilibration steps. The MS was operated with a desolvation temperature of 450° C. and a source temperature of 150° C. Desolvation and source nitrogen gas flows were 900 L/hr and 50 L/hr, respectively. Source and MS/MS voltages were optimized for each compound using the MassLynx auto tune utility. Standard curves were generated for each compound from brain homogenate and plasma samples that had compound added at 4, 40, 400 and 4000 ng/mL and extracted as above. Peak areas were plotted against concentration and a 1/x weighted linear regression curve was used to quantify the tissue-derived samples using the average peak area from triplicate injections.
# [2] = Full PK analysis and oral administration, brain and plasma levels; assay type: in vivo, mice; details: oral 5 mg/Kg, FIGS. 6B and 6C; 5 mg/kg
# Protocol: FIG. 6. (A) Brain and plasma level of F4 (CNDR-51362) after i.v. administration at 2 mg/Kg; (B) Brain and plasma level of F4 (CNDR-51362) after oral administration at 5 mg/Kg; (C) Brain and plasma level of F3 (CNDR-51349) after oral administration at 5 mg/Kg
# as §1, §2
# K18PL tau [3] = target: T1, K18PL tau (Homo sapiens, UniProt P10636, P618L); assay: K18PL tau centrifugation (sedimentation) assay, SDS-PAGE densitometry; assay type: biochemical; details: for Emax: SDS-PAGE of soluble and insoluble fractions after centrifugation, read-out: K18PL Sed. Assay, maximal percent inhibition of K18PL fibrillization
# T1 construct: (K18PL; amino acids 244-369); made in house
# T1 sequence (P10636 561-686 P618L): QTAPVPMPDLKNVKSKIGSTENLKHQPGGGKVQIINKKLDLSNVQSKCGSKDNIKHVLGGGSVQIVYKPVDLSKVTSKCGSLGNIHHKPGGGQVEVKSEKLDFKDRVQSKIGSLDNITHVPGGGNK
# How it was run: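 Heparin-induced fibrillization of K18PL tau in sodium acetate buffer with test compound; mixtures were centrifuged and soluble versus insoluble K18PL quantified by SDS-PAGE densitometry. A repeat run centrifuged DMSO- and compound-treated mixtures for 30 min at time zero to remove pelletable material before incubation.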
# K18PL tau [4] = target: T1, K18PL tau; assay: Heparin-induced K18PL tau fibrillization assay monitored by ThT fluorescence; assay type: biochemical; details: for Emax: read-out: K18PL (ThT) maximal percent inhibition achieved in the assay
# How it was run: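 K18PL (30 μM stock, with 0.24 μM Alexa Red-labeled K18PL) plus 40 μM heparin and compound, fibrillized 6 h at 37 °C. Fibrils read by ThT (12.5 μM final, in 100 mM glycine pH 8.5, 1 h RT), ex 450/em 510 nm. Percent inhibition scaled between DMSO wells and non-fibrillizing K18 KD control wells.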
# full-length tau (tau40) = target: T2, full-length tau (tau40) (Homo sapiens, UniProt P10636); assay: Tau40 fibrillization sedimentation assay; assay type: biochemical; details: SDS-PAGE of soluble and insoluble fractions after centrifugation; for Emax: read-out: Tau40 Sed. Assay, maximal percent inhibition of tau40 fibrillization
# T2 construct: Full length tau (Tau40; amino acids 1-441); made in house
# T2 sequence (P10636 1-441 isoform P10636-8): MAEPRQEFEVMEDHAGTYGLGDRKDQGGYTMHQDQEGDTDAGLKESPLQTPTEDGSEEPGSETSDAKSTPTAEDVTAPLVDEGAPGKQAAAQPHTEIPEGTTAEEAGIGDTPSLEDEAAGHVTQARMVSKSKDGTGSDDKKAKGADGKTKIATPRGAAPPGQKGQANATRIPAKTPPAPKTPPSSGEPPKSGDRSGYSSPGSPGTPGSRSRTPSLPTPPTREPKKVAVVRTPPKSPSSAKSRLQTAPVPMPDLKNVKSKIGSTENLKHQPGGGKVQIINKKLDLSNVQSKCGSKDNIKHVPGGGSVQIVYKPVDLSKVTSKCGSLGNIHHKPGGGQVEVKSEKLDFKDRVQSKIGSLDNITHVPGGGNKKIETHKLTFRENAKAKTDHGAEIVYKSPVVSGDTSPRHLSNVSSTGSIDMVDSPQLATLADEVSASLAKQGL
# Protocol: The determination of compound-induced effects on the amount of tau that remains soluble upon centrifugation, and EM visualization of tau species following incubation with test compounds, were as previously described (Crowe, A., Ballatore, C., Hyde, E., Trojanowski, J. Q., and Lee, V. M. Y. (2007) Biochemical and Biophysical Research Communications 358, 1-6). […]
# [5] = Turbidimetric solubility in fibrillization buffer; assay type: physicochemical; details: 100 mM NaOAc pH 7.0 fibrillization buffer, 1% DMSO
# Protocol: Compounds were serially diluted in DMSO to achieve a 2.5 fold dilution series from 20 mM down 8 points to […] on a 384-well master plate (Costar 3672). Aliquots (2 μL) were transferred to a clear 96-well assay plate (Fisher 12-565-501) containing 198 μL fibrillization buffer (100 mM NaOAc pH 7.0) for a 100-fold dilution (200 μM down to 0.3 μM). The plate was incubated with agitation for 2.5 h, and the absorbance at 550, 600, 650 and 700 nm was measured on a Spectramax M5 spectrophotometer. DMSO (1%) in fibrillization buffer served as a control that was subtracted from each data point. The absorbances were averaged and the concentration at which the average absorbance rose above 0.03 AU was an indication of insoluble compound, with solubility limits reported as the previous concentration in the dilution series.
# Aβ(1-42) = target: T3, Aβ(1-42) (Homo sapiens, UniProt P05067); assay: Aβ(1-42) fibrillization assay (ThT); assay type: biochemical; details: Table 3; highest tested concentration (80 μM); read-out: Aβ42 ThT Assay % Inhib.
# T3 construct: Synthetic Aβ(1-42) peptide (rPeptide); purchased rPeptide
# T3 sequence (P05067 672-713 limits assumed): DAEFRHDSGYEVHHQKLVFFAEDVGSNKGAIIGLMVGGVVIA
# Tau40 = target: T4, Tau40 (Homo sapiens, UniProt P10636); assay: SEC of Tau40 fibrillization post-centrifugation supernatants; assay type: biochemical; details: tau40 fibril assembly with 5b relative to untreated fibrillization reaction, FIG. 2
# T4 construct: Full length tau (Tau40; amino acids 1-441); made in house
# T4 sequence (P10636 1-441 isoform P10636-8): as the sequence (P10636 1-441 isoform P10636-8) above
# Protocol: Tau40 (50 μM) and heparin (20 μM) were incubated in a PCR tube with or without the compound 5b (100 μM) at 37° C. for 5 days in a final volume of 100 μl of […] sodium acetate buffer, pH 7.0. In the absence of compound, tau40 fibrillization is complete under these conditions, as determined by ThT fluorescence and centrifugation assays. A non-assembly control reaction was also prepared as above with Tau40 and 5b in the absence of heparin. The completed reactions were centrifuged at 40,000 g for 30 minutes to sediment fibrils and the supernatants were applied to a Superdex 200 10/300 column (GE Healthcare) employing an Äkta Basic FPLC unit (GE Healthcare) with a flow rate of 0.4 ml/minute. Tau elution was monitored by absorbance at 280 nm. Under these chromatography conditions, monomeric tau can be separated from oligomeric species (Li, W. K. and Lee, V. M. Y. (2006) Biochemistry 45, 15692-15701).
# [6] = target: T5, K18 tau-mediated tubulin polymerization (Homo sapiens, UniProt P10636); assay: Tau-mediated MT assembly assay (K18 tau, tubulin); assay type: biochemical, bovine (tubulin); details: 50 μM compound, FIG. 1A
# T5 construct: (K18PL; amino acids 244-369)
# T5 sequence (P10636 561-686): as the sequence (P10636 561-686 P618L) above, with L58P counted along it
# Protocol: The effect of compounds on tau-mediated MT assembly was essentially as described (Hong, M., Zhukareva, V., Vogelsberg-Ragaglia, V., Wszolek, Z., Reed, L., Miller, B. I., Geschwind, D. H., Bird, T. D., McKeel, D., Goate, A., Morris, J. C., Wilhelmsen, K. C., Schellenberg, G. D., Trojanowski, J. Q., and Lee, V. M. Y. (1998) Science 282, 1914-1917), adapted to a 384-well plate. […] Lyophilized bovine brain tubulin (Cytoskeleton Inc.) was reconstituted in RAB (100 mM MES, pH 6.9; 1 mM EDTA; 0.5 mM MgSO4) at a concentration of 10 mg/ml. Compounds (50 μM) were added to K18 tau (40 μM) in RAB and pre-incubated at room temperature for 60 minutes. To initiate the MT assembly reaction, 8.25 μl per well of 10 mg/ml tubulin was dispensed on a UV-clear 384-well plate (Corning #3675), followed by 1.0 μl of 100 mM GTP in RAB and 41.25 μl of the compound:tau mixture. […] The plate was incubated in a Spectramax M5 plate reader at 37° C. and the absorbance at 340 nm was read every minute for 45 minutes.
# [7] = Table 5, read-out: K18PL (ThT) IC50 value
Structure (SMILES),"B/P, ratio between brain/plasma drug level [1]","Brain level ([1]; 1 h after i.p. 5 mg/kg, listed as CNDK-51349, 5 mg/kg)",Brain concentration after oral administration [2],Emax (K18PL tau [3]),IC50 (K18PL tau [4]; [7]),Emax (K18PL tau [4]; Table 5),"Tau40 Sed. Assay, maximal percent inhibition of tau40 fibrillization (full-length tau (tau40))",Emax (full-length tau (tau40)),Water Solubility [5],inhibition at 80 µM (Aβ(1-42)),"Tau Cent. Assay % Soluble (K18PL tau [3]; Table 3, K18PL tau centrifugation assay)","inhibition at 80 µM (K18PL tau [4]; Table 3, highest tested concentration (80 μM), read-out: Tau ThT Assay % Inhib.)","IC50 (K18PL tau [4]; Table 3, logarithm of IC50, K18PL tau ThT fluorescence inhibition, NC = not calculated due to insufficient activity, read-out: Tau ThT Assay Log IC50 (converted))",Effect on tau-mediated tubulin polymerization (MT formation) [6],Monomeric tau in post-centrifugation supernatant (SEC) (Tau40)
"CC(C)NC(=O)c1nn(-c2ccc(Cl)cc2)c(=O)c2c(N)scc12 [CNDR-51349, 5-Amino-3-(4-chlorophenyl)-N-isopropyl-4-oxo-3,4-dihydrothieno[3,4-d]pyridazine-1-carboxamide]",2.2,1100 ng/g,significant brain concentrations,65%,0.7 µM,88%,45%,50 to 60%,32 µM,–,–,–,–,–,–
"CC(C)NC(=O)c1nn(-c2ccc(Br)cc2)c(=O)c2c(N)scc12 [CNDR-51390, 5-Amino-3-(4-bromophenyl)-N-isopropyl-4-oxo-3,4-dihydrothieno[3,4-d]pyridazine-1-carboxamide]",2.0,–,–,58%,2.2 µM,89%,55%,50 to 60%,13 µM,–,–,–,–,–,–
CCOC(=O)c1nn(-c2ccc(OC)cc2)c(=O)c2c(N)scc12 [Compound 5b],–,–,–,–,–,–,–,–,–,28%,64%,86%,5.01 µM,–,appreciable increase in the amount of monomeric tau

# Second part, led by results:
"B/P, ratio between brain/plasma drug level [1]","Brain level ([1]; 1 h after i.p. 5 mg/kg, listed as CNDK-51349, 5 mg/kg)",Brain concentration after oral administration [2],Emax (K18PL tau [3]),IC50 (K18PL tau [4]; [7]),Emax (K18PL tau [4]; Table 5),"Tau40 Sed. Assay, maximal percent inhibition of tau40 fibrillization (full-length tau (tau40))",Emax (full-length tau (tau40)),Water Solubility [5],inhibition at 80 µM (Aβ(1-42)),"Tau Cent. Assay % Soluble (K18PL tau [3]; Table 3, K18PL tau centrifugation assay)","inhibition at 80 µM (K18PL tau [4]; Table 3, highest tested concentration (80 μM), read-out: Tau ThT Assay % Inhib.)","IC50 (K18PL tau [4]; Table 3, logarithm of IC50, K18PL tau ThT fluorescence inhibition, NC = not calculated due to insufficient activity, read-out: Tau ThT Assay Log IC50 (converted))",Effect on tau-mediated tubulin polymerization (MT formation) [6],Structure (SMILES),Monomeric tau in post-centrifugation supernatant (SEC) (Tau40)
0.89,–,–,62%,6.8 µM,91%,58%,50 to 60%,80 µM,–,–,–,–,–,"CCN(C)C(=O)c1nn(-c2ccc(Cl)cc2)c(=O)c2c(N)scc12 [CNDR-51366, 5-Amino-3-(4-chlorophenyl)-N-ethyl-N-methyl-4-oxo-3,4-dihydrothieno[3,4-d]pyridazine-1-carboxamide]",–
0.49,–,–,68%,4.3 µM,91%,51%,50 to 60%,13 µM,–,–,–,–,–,"CNC(=O)c1nn(-c2ccc(Cl)cc2)c(=O)c2c(N)scc12 [CNDR-51367, 5-Amino-3-(4-chlorophenyl)-N-methyl-4-oxo-3,4-dihydrothieno[3,4-d]pyridazine-1-carboxamide]",–
–,–,–,–,–,–,–,–,–,–,–,–,–,significant diminution,CN(C)c1ccc2nc3ccc(=[N+](C)C)cc-3sc2c1 [methylene blue],–
